Measurements taken from ChEMBL document CHEMBL3390845, “Development of second generation amidinohydrazones, thio- and semicarbazones as Trypanosoma cruzi-inhibitors bearing benzofuroxan and benzimidazole 1,3-dioxide core scaffolds” (Medchemcomm, 2010).
pIC50: −log10 of the molar value.

Tests used:
[1] = system: Trypanosoma cruzi; assay: Antitrypanosomal activity against epimastigotes of Trypanosoma cruzi Tulahuen 2 assessed as parasite growth inhibition after 5 days; type: functional; details: Tulahuen 2, 120 h, read-out: ID50 (the source's name)
[2] = Hemolytic activity in human RBC assessed as hemoglobin release after 24 hrs by spectrophotometry; type: ADME, cell-based, Erythrocyte; details: for HC50 at 24 h: human red blood cells (RBC), read-out: ID50; for ID50: erythrocyte, 24 h
[3] = biological target: Cruzipain (Trypanosoma cruzi) (UniProt P25779); assay: Inhibition of Trypanosoma cruzi Cruzipain using Z-Phe-Arg-AMC as substrate at 100 uM at pH 7.3 measured for 10 mins by spectrofluorimetric analysis relative to control
[4] = biological target: Cruzipain (Trypanosoma cruzi) (UniProt P25779); assay: Inhibition of Trypanosoma cruzi Cruzipain using Z-Phe-Arg-AMC as substrate measured for 10 mins by spectrofluorimetric analysis relative to control
[5] = Cytotoxicity in mouse J774 cells assessed as cell viability after 48 hrs by MTT assay; type: cell-based; details: read-out: ID50
[6] = Selectivity index, ratio of ID50 for human RBC to ID50 for epimastigotes of Trypanosoma cruzi Tulahuen 2
[7] = biological target: Cruzipain (Trypanosoma cruzi) (UniProt P25779); assay: Inhibition of Trypanosoma cruzi Cruzipain using Z-Phe-Arg-AMC as substrate at 100 uM at pH 5.3 measured for 10 mins by spectrofluorimetric analysis relative to control
[8] = Selectivity index, ratio of ID50 for mouse J774 cells to ID50 for epimastigotes of Trypanosoma cruzi Tulahuen 2; type: toxicity, cell-based; details: read-out: Selectivity Index
[9] = biological target: Cruzipain (Trypanosoma cruzi) (UniProt P25779); assay: Inhibition of Trypanosoma cruzi Cruzipain using Z-Phe-Arg-AMC as substrate at 100 uM at pH 7.3 measured for 10 mins by spectrofluorimetric analysis relative to control in presence of Triton X-100

Chain of Cruzipain (Trypanosoma cruzi) (P25779 123-467 limits assumed): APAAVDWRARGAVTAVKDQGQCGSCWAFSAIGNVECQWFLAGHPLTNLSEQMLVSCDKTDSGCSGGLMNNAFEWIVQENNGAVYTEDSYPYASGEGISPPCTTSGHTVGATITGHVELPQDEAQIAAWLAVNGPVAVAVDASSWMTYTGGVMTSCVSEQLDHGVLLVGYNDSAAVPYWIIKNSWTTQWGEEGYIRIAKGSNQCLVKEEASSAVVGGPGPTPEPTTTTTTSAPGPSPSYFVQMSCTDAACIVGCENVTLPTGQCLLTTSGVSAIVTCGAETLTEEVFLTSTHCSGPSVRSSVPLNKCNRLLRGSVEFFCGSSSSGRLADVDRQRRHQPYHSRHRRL

| SMILES | pIC50 [1] | inhibition [3] [%] | ID50 [4] [µM] | inhibition [7] [%] | inhibition [9] [%] | HC50 at 24 h [2] [µM] | CC50 at 48 h [5] [µM] | ID50 [2] | Selectivity Index [6] | selectivity ratio [8] |
| --- | --- | --- | --- | --- | --- | --- | --- | --- | --- | --- |
| CC1(C)[N+]([O-])=c2ccc(COc3ccccc3/C=N\NC(=N)N)cc2=[N+]1[O-] | < 4.60 | 2.5 | > 100 | – | – | 114 | – | – | – | – |
| [O-][n+]1onc2ccc(/C=N/N=C/c3cc(Br)ccc3O)cc21 | 4.60 | – | 73 | – | – | – | – | – | – | – |
| CC1(C)[N+]([O-])=c2ccc(COc3ccc(/C=N/NC(N)=O)cc3)cc2=[N+]1[O-] | < 4.60 | 0 | > 100 | – | – | > 200 | – | – | – | – |
| C=CCNC(=S)N/N=C/c1ccc(OCc2ccc3no[n+]([O-])c3c2)cc1 | < 4.60 | 38 | > 100 | – | – | – | – | ND(Insoluble) | – | – |
| C[C@@H]1[C@H](O)[C@@H](C)/C=C/C=C/C=C/C=C/C=C/C=C/C=C/[C@H](O[C@@H]2O[C@H](C)[C@@H](O)[C@H](N)[C@@H]2O)C[C@@H]2O[C@](O)(C[C@@H](O)C[C@@H](O)[C@H](O)CC[C@@H](O)C[C@@H](O)CC(=O)O[C@H]1C)C[C@H](O)[C@H]2C(=O)O [AMPHOTERICIN B] | – | – | – | – | – | 1.5 | – | – | 10 | – |
| CC(=O)c1ccccc1OCc1ccc2c(c1)=[N+]([O-])C(C)(C)[N+]=2[O-] | < 4.60 | 0 | > 100 | – | – | < 50 | – | – | – | – |
| O=Cc1cccc(OCc2ccc3no[n+]([O-])c3c2)c1 | 4.55 | 43 | 100 | – | – | 50 | – | – | – | – |
| [O-][n+]1onc2ccc(/C=N/N=C/c3ccccc3O)cc21 | < 4.60 | – | 68 | – | – | – | – | – | – | – |
| N=C(N)N/N=C/c1cccc(OCc2ccc3no[n+]([O-])c3c2)c1 | < 4.60 | 42 | 100 | 28 | – | > 100 | – | – | – | – |
| NC(=S)N/N=C\c1ccccc1OCc1ccc2no[n+]([O-])c2c1 | < 4.60 | 49 | 100 | – | – | 189 | < 100 | – | – | – |
| CC1(C)[N+]([O-])=c2ccc(COc3ccc(/C=N/NC(=S)Nc4ccccc4)cc3)cc2=[N+]1[O-] | < 4.60 | 72 | 85 | – | – | < 50 | – | – | – | – |
| CC1(C)[N+]([O-])=c2ccc(COc3cccc(C=O)c3)cc2=[N+]1[O-] | < 4.60 | 45 | 100 | – | – | < 50 | – | – | – | – |
| O=Cc1ccc(OCc2ccc3no[n+]([O-])c3c2)cc1 | – | 6.3 | > 100 | – | – | < 50 | – | – | – | – |
| CC1CS(=O)(=O)CCN1/N=C/c1ccc([N+](=O)[O-])o1 (stereo not given) [NIFURTIMOX] | – | – | – | – | – | > 100 | – | – | 13 | – |
| NC(=S)N/N=C/c1ccc(OCc2ccc3no[n+]([O-])c3c2)cc1 | – | – | 43 | – | – | > 200 | – | – | > 13.3 | 26.7 |
| NC(=O)N/N=C\c1ccccc1OCc1ccc2no[n+]([O-])c2c1 | < 4.60 | 7 | > 100 | – | – | > 100 | < 100 | – | – | – |
| N=C(N)N/N=C\c1ccccc1OCc1ccc2no[n+]([O-])c2c1 | < 4.60 | 39 | > 100 | – | – | 58 | < 100 | – | – | – |
| N=C(N)N/N=C/c1ccc(OCc2ccc3no[n+]([O-])c3c2)cc1 | – | – | 32 | – | – | > 200 | – | – | – | – |
| NC(=O)N/N=C/c1ccc(OCc2ccc3no[n+]([O-])c3c2)cc1 | – | – | > 100 | – | – | > 200 | – | – | – | – |

More lines, in order of rising pIC50 [1], values ahead:

| pIC50 [1] | inhibition [3] [%] | ID50 [4] [µM] | inhibition [7] [%] | inhibition [9] [%] | SMILES | HC50 at 24 h [2] [µM] | CC50 at 48 h [5] [µM] | ID50 [2] | Selectivity Index [6] | selectivity ratio [8] |
| --- | --- | --- | --- | --- | --- | --- | --- | --- | --- | --- |
| 4.62 | 95 | 64 | – | – | CC1(C)[N+]([O-])=c2ccc(COc3cccc(/C=N/NC(N)=S)c3)cc2=[N+]1[O-] | 141 | – | – | – | – |
| 4.64 | 11 | > 100 | – | – | C=CCNC(=S)N/N=C\c1ccccc1OCc1ccc2no[n+]([O-])c2c1 | 139 | 138 | – | – | – |
| 4.64 | 51 | 100 | – | – | C=CCNC(=S)N/N=C/c1ccc(OCc2ccc3c(c2)=[N+]([O-])C(C)(C)[N+]=3[O-])cc1 | > 100 | – | – | – | – |
| 4.77 | 35.5 | > 100 | – | – | CC1(C)[N+]([O-])=c2ccc(COc3ccc(C=O)cc3)cc2=[N+]1[O-] | 65 | < 100 | – | – | – |
| 4.77 | 13.7 | > 100 | – | – | CC1(C)[N+]([O-])=c2ccc(COc3ccc(/C=N/NC(N)=S)cc3)cc2=[N+]1[O-] | – | – | ND(Insoluble) | – | – |
| 4.78 | 21 | > 100 | – | – | C/C(=N/NC(=N)N)c1ccccc1OCc1ccc2no[n+]([O-])c2c1 | > 200 | – | – | – | – |
| 4.82 | 80 | 78 | – | – | NC(=S)N/N=C/c1cccc(OCc2ccc3no[n+]([O-])c3c2)c1 | – | – | ND(Insoluble) | – | – |
| 4.85 | 35 | > 100 | – | – | CC1(C)[N+]([O-])=c2ccc(COc3ccccc3/C=N\NC(N)=S)cc2=[N+]1[O-] | > 200 | – | – | – | – |
| 4.89 | 100 | 55 | 79 | 90 | C=CCNC(=S)N/N=C/c1cccc(OCc2ccc3no[n+]([O-])c3c2)c1 | – | – | ND(Insoluble) | – | – |
| 5.08 | – | 78 | – | – | [O-][n+]1onc2ccc(/C=N/NC(=S)Nc3ccccc3)cc21 | – | – | – | – | – |
| 5.11 | 0 | > 100 | – | – | CC1(C)[N+]([O-])=c2ccc(COc3ccccc3/C=N\NC(=S)Nc3ccccc3)cc2=[N+]1[O-] | 66 | < 100 | – | – | – |
| 5.14 | – | – | – | – | C=CCNC(=S)N/N=C/c1ccc2c(c1)=[N+]([O-])C(C)(C)[N+]=2[O-] | – | – | – | – | – |
| 5.15 | 95 | 75 | – | – | [O-][n+]1onc2ccc(COc3ccc(/C=N/NC(=S)Nc4ccccc4)cc3)cc21 | – | – | ND(Insoluble) | – | – |
| 5.15 | 12 | > 100 | – | – | CC(=O)c1ccccc1OCc1ccc2no[n+]([O-])c2c1 | > 200 | – | – | – | – |
| 5.20 | 0 | > 100 | – | – | O=Cc1ccccc1OCc1ccc2no[n+]([O-])c2c1 | > 100 | 78 | – | > 15.9 | 12.4 |
| 5.33 | 0 | > 100 | – | – | CC1(C)[N+]([O-])=c2ccc(COc3ccccc3/C=N\NC(N)=O)cc2=[N+]1[O-] | 50 | – | – | – | – |
| 5.44 | 0 | > 100 | – | – | [O-][n+]1onc2ccc(COc3ccccc3/C=N\NC(=S)Nc3ccccc3)cc21 | > 200 | > 400 | – | > 55.6 | > 111 |
| 5.57 | 6.6 | > 100 | – | – | C=CCNC(=S)N/N=C\c1ccccc1OCc1ccc2c(c1)=[N+]([O-])C(C)(C)[N+]=2[O-] | – | – | ND(Insoluble) | – | – |
